Data reported in patent publication US20100317517A1, “HERBICIDE-SAFENER COMBINATION” (BAYER CROPSCIENCE AG, priority 2007, published 2010).
Where “and” joins values, the source holds several entries; their conditions need not be identical. Equal entries are not always repeated.

Key:
Type in all cases: in vivo
Details in all cases: no safener
Corn [1] = test: Compatibility with crop plants, greenhouse, post-emergence, visual scoring
Protocol: (§1) Seeds or rhizome pieces of monocotyledonous and dicotyledonous weeds were placed in sandy loam soil in plastic pots, covered with soil and cultivated in a greenhouse under good growth conditions. Three weeks after sowing, the test plants were treated at the 2- to 4-leaf stage. The compounds according to the invention, formulated as wettable powders or as emulsion concentrates, were sprayed onto the green parts of the plants in various dosages at a water application rate of 100 to 800 I/ha (converted). After the test plants had been left to stand in the greenhouse for 3 to 4 weeks under optimum growth conditions, the effect of the preparations was scored visually in comparison to untreated controls.
(§2) In further greenhouse trials, seeds of a relatively large number of crop plants and weeds were placed into sandy loam soil and covered with soil. Some of the pots were immediately treated as described in section 1, the others were placed in a greenhouse until the plants had developed two to three true leaves and were then sprayed with various dosages of the herbicide/safener combinations according to the invention, as described in section 2. Four to five weeks after the application and standing time in the greenhouse, it was established by visual scoring that the herbicide/safener combinations tested, i.e. of 2-iodo-N-[(4-methoxy-6-methyl-1,3,5-triazin-2-yl)carbamoyl]benzenesulfonamide and the compounds of the formula (I) listed in table A, did, especially with the safeners of the compounds of the formulae S1-1, S1-6, S1-9, S2-1 and S3-1, benoxacor, furilazole, fluxofenim, not cause any damage to crop plants such as cotton, oilseed rape, sugar cane, sugar beet and also Gramineae crops such as barley, wheat, rye, millet, corn or rice when applied by the pre-emergence method or the post-emergence method.
(§3) The results of selected trials with respect to the crop plant compatibility are shown below in an exemplary manner using as an example safeners improving 2-iodo-N-[(4-methoxy-6-methyl-1,3,5-triazin-2-yl)carbamoyl]benzenesulfonamide (A-0) or its Na^+ salt (A-2) in various crop plants, i.e. wheat, barley and corn.

Wheat = test: as above
Protocol: as §1, §2, §3

Barley = test: as above
Protocol: as §1, §2, §3

Corn [2] = test: Compatibility with crop plants, greenhouse, pre-emergence, visual scoring
Text: Seeds or rhizome pieces of monocotyledonous and dicotyledonous weed plants were placed in sandy loam soil in cardboard pots and covered with soil. The active compounds (A) and (B), formulated as wettable powders or emulsion concentrates, were then applied to the surface of the covering soil as aqueous suspensions or emulsions in different dosages at a water application rate of 100 to 800 I/ha (converted).
After the treatment, the pots were placed in a greenhouse and kept under good growth conditions for the weeds. Visual scoring of the plant damage or emergence damage was carried out after the test plants had emerged after a test period of 3 to 4 weeks, in comparison to untreated controls. […] The combinations of 2-iodo-N—[(4-methoxy-6-methyl-1,3,5-triazin-2-yl)carbamoyl]benzenesulfonamide and compounds of the formula (I) mentioned in table A especially with the safeners of the compounds of the formulae S1-1, S1-9, S2-1 and S3-1 have very good synergistic herbicidal activity against harmful plants such as Sinapis alba, Chrysanthemum segetum, Avena sativa, Stellaria media, Echinochloa crus-galli, Lolium multiflorum, Setaria viridis, Abutilon theophrasti, Amaranthus retroflexus and Panicum miliaceum when applied by the pre-emergence method at an application rate of 100 g or less of active substance per hectare. […]

[3] = active compound 6.25 g of ai/ha
[4] = active compound 12.5 g of ai/ha

## COc1nc(C)nc(NC(=O)NS(=O)(=O)c2ccccc2I)n1 [Compound A-0, 2-iodo-N-[(4-methoxy-6-methyl-1,3,5-triazin-2-yl)carbamoyl]benzenesulfonamide]
Corn [1]; [3]
  Damage to the crop plant in %: 20%
Corn [1]; active compound 25 g of ai/ha
  Damage to the crop plant in %: 50%
Wheat; [3]
  Damage to the crop plant in %: 20%
Wheat; [4]
  Damage to the crop plant in %: 20%
Barley; [3]
  Damage to the crop plant in %: 20% and 10%
Barley; [4]
  Damage to the crop plant in %: 20%
Corn [2]; [4]
  Damage to the crop plant in %: 65%
Corn [2]; active compound 50 g of ai/ha
  Damage to the crop plant in %: 60%
